Assay results: article PMC10945501, “Development and In Vivo Evaluation of Small-Molecule Ligands for Positron Emission Tomography of Immune Checkpoint Modulation Targeting Programmed Cell Death 1 Ligand 1” (Journal of Medicinal Chemistry, 2024)
“And” between values parts separate entries of the source, which are not always exact repeats. Equal values may be shown once.

Key:
[1] = system: PD-L1^± ES2 tumors (ovarian carcinoma); parameters: method as in PMID 37450644; settings: ex vivo autoradiography; cited from earlier work
[2] = system: PD-L1^+ / PD-L1^– H358 tumors (lung adenocarcinoma); parameters: method as in PMID 37450644; settings: ex vivo autoradiography; cited from earlier work
CHO-hPD-L1 cells = experiment: MTT cell viability assay; format: cell-based, Chinese hamster; settings: Cricetulus griseus; CHO-hPD-L1 cells, 24 h; read-out: EC50 (cell viability, MTT)
[3] = system: PD-L1-negative (CHO) cells; experiment: Competitive radioligand binding assay with [^89Zr]Zr-atezolizumab, PD-L1-negative cells; parameters: species or system Chinese hamster; settings: preincubation with 5,000 nM blocker
Method: When 5a and 5c were administered at their highest noncytotoxic concentrations, a 50% blockade of antibody binding was observed (p = 0.034, p = 0.025, respectively).
Nonspecific binding of MultiScreen plates (Merck KGaA, Darmstadt, Germany) was blocked with additive-free Ham’s F-12 medium for 30 min, followed by the addition of 2 × 10^5 CHO-K1 (ATCC, Manassas, USA) or CHO-hPD-L1 cells in 150 μL of additive-free Ham’s F-12 medium per well. […] Supernatant was removed after 60 min of incubation using the MultiScreenHTS vacuum filtration system (Merck KGaA, Darmstadt, Germany) and cells were washed twice with DPBS. After drying, filters were punched and measured in a Wizard^2 γ counter (PerkinElmer, Waltham, USA).

[4] = Lipophilicity by HPLC method (μHPLC logD)
PD-L1 (CHO-hPD-L1 cells) = target: T1, PD-L1 (CHO-hPD-L1 cells) (Homo sapiens, UniProt Q9NZQ7); experiment: Competitive radioligand binding assay with [^89Zr]Zr-atezolizumab, PD-L1-positive cells
T1 construct: host or cells: CHO (Chinese hamster ovary) cells, kept under G418 selection
T1 sequence (Q9NZQ7 19-290): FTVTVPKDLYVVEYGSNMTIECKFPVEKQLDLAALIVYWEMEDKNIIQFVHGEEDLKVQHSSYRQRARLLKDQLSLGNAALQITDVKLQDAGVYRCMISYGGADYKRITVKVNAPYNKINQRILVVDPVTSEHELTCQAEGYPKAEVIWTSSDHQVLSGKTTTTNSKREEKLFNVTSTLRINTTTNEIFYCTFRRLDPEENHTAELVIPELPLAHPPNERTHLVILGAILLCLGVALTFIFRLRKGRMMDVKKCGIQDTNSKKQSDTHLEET

human PD-L1 = target: T2, human PD-L1 (Homo sapiens, UniProt Q9NZQ7); experiment: HTRF PD-1/PD-L1 binding assay (cell-free)
T2 construct: purchased Cisbio Bioassays SAS, Codolet, France 64PD1PEG
T2 sequence (Q9NZQ7 19-238 limits assumed): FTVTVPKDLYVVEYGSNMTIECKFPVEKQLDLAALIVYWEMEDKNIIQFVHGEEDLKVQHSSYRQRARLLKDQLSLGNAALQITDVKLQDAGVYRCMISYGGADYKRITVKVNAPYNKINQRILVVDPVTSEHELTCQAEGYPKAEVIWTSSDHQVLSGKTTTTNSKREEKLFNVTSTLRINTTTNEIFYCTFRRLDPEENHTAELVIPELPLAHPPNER

[5] = Plasma stability, human plasma; format: in vitro ADME; settings: 60 min, 37 °C
Method: (§1) Plasma stability was tested against pooled mouse plasma (Merck KGaA, Darmstadt, Germany) and pooled human plasma (Merck KGaA, Darmstadt, Germany). 25 μL of formulated radiotracer were incubated with 1250 μL of plasma at 37 °C. The amount of intact tracer (%) was determined after 0, 15, 30, and 60 min. 100 μL aliquots were quenched with the same amount of MeCN, centrifuged for 4 min at 4 °C with 21,380g, and analyzed by HPLC setup 1.

[6] = system: CHO and CHO-hPD-L1 xenografts; experiment: Ex vivo biodistribution; format: in vivo, NSG mice
Method: Ex vivo biodistribution was assessed 30, 40, and 70 min after tracer application in NSG mice. Radioactivity was determined using a Wizard[2] γ counter. Samples were measured for 30 s, CPM-corrected for background counts, and half-life corrected to time of tracer injection. Organs were wet-weighted, and the percentage of injected dose per gram of organ was calculated (% ID/g).

[7] = Plasma protein binding (centrifugal filters); format: in vitro ADME; settings: 10 kDa centrifugal filters
Method: Plasma protein binding was assessed using 10 kDa centrifugal filters (Merck KGaA, Darmstadt, Germany). After centrifugation for 30 min at 21,380g, filtrates, and filters were measured separately in a γ counter. In addition, water was used instead of plasma to assess the nonspecific binding to filters.

[8] = Plasma stability, mouse plasma; format: in vitro ADME; settings: 60 min, 37 °C
Method: as §1

[9] = Metabolic stability in human liver microsomes; format: in vitro ADME; settings: 60 min, 37 °C
Method: Metabolic stability was tested using pooled, mixed gender, 20 donor human liver microsomes (HLM) (Corning, Corning, USA, Cat. #452161) according to the supplied protocol. In short, 15 μL of HLM (20 mg/mL), 15 μL of nicotinamide adenine dinucleotide phosphate (NADPH) regenerating system solution A (Corning, Corning, USA), 3 μL of solution B (Corning, Corning, USA), and 257 μL of a 1:10 dilution of 10× phosphate-buffered saline (PBS) concentrate (MORPHISTO, Offenbach am Main, Germany) were preincubated at 37 °C for 10 min.
Aliquots were drawn 0, 15, 30, and 60 min after the addition of 5 μL radiotracer, subsequently quenched with the same amount of MeCN, centrifuged for 4 min at 21,380g, and analyzed by HPLC setup 1 for the amount of intact tracer (%).

[10] = system: CHO and CHO-hPD-L1 xenografts; experiment: In vivo dynamic μPET/CT imaging; settings: NSG mice, i.v.
Method: Body weight and tumor development were monitored every second day by caliper measurement. […] The animals were subjected to μPET imaging, when tumors reached a volume of at least 200 mm^3. […] There were no losses. […] The mice were placed in the μPET/CT scanner (Inveon, Siemens Medical Solution, Knoxville, USA), covering the total body, and dynamic imaging was performed for up to 60 min to follow tracer distribution. Images were recorded with frames of 4 × 2 […], and 1 × 500 s. During the whole imaging procedure, vital parameters (respiration, body temperature) were continuously monitored using a dedicated monitoring unit (bioVet; m2m imaging, Cleveland, USA) to ensure the depth of anesthesia and well-being of the animals. […] Volumes of interest (VOIs) were created semiautomatically based on fused μPET and μCT images using PMOD software (Version 3.807; Bruker, Mannheim, Germany). The tracer uptake in the VOIs is normalized to injected dose and volume and expressed as percentage injected dose per cubic centimeter (% ID/cc).

PD-L1 = system: PD-L1; parameters: method as in PMID 37409670; settings: B16–F10, no control xenograft; cited from earlier work

N#Cc1c(-c2ccc([18F])cc2)csc1OCc1ccc(CN)cc1 [2-((4-(aminomethyl)benzyl)oxy)-4-(4-[^18F]fluorophenyl)thiophene-3-carbonitrile]
difference in uptake PD-L1^+ vs PD-L1^– tumors [1]: not observed | fold higher uptake in PD-L1^+ compared to PD-L1^– tumors [2]: 1.4 fold

Cc1c(COc2cc(OCc3ccnc(C#N)c3)c(CN(C)CCO)cc2Cl)cccc1-c1ccc2c(c1)OCCO2 [Compound 5c, 4-((4-Chloro-5-((3-(2,3-dihydrobenzo[b][1,4]dioxin-6-yl)-2-methylbenzyl)oxy)-2-(((2-hydroxyethyl)(methyl)amino)methyl)phenoxy)methyl)picolinonitrile]
EC50 (CHO-hPD-L1 cells): 11600 nM | % applied activity ([^89Zr]Zr-atezolizumab bound) [3]: 0.1 % applied activity | μHPLC logD ([4]; pH 7.4): 4.9 ± 0.3 | chromatographic logD ([4]; pH 7.4, μHPLC logD): 4.93 ± 0.27 | % applied activity ([^89Zr]Zr-atezolizumab bound) (PD-L1 (CHO-hPD-L1 cells); CHO-hPD-L1 cells, preincubation with 5,000 nM blocker): 4.7 % applied activity | blockade of antibody binding (PD-L1 (CHO-hPD-L1 cells); highest noncytotoxic concentration, CHO-hPD-L1 cells): 50% | Ki (PD-L1 (CHO-hPD-L1 cells); range contingent on published KD values of atezolizumab, read-out: Ki (Cheng–Prusoff)): 700 to 4500 nM | fold decrease in affinity by methylation at R3* (human PD-L1; IC50 ratio, pairs 4c vs 5a, 4c vs 5b, 4e vs 5c, 4e vs 5d): 1.32 fold | IC50 (human PD-L1; cell-free competitive PD-1/PD-L1 HTRF, mean ± SD, read-out: IC50 (hPD-L1 binding affinity, HTRF)): 10 nM and 10.2 nM

Cc1c(COc2cc(OCc3ccnc(C#N)c3)c(CN([11CH3])CCO)cc2Cl)cccc1-c1ccc2c(c1)OCCO2 [[^11C]5c]
intact tracer in human plasma [5]: over 99% | organ uptake (ex vivo biodistribution) ([6]; NSG mice): substantial uptake in the liver, lung, and kidneys | ex vivo uptake marked in Figure 9B ([6]; NSG mice, 30, 40 or 70 min p.i.): < 1.5 % ID/g | fraction unbound [7]: 0.011 | intact tracer in mouse plasma [8]: over 99% | intact tracer after human liver microsomes [9]: 49.3% | organ uptake (μPET) [10]: high uptake in the liver, intestine, gallbladder, and kidneys | uptake in CHO and CHO-hPD-L1 xenografts (μPET) ([10]; dynamic scan up to 60 min): < 1.2 % ID/cc

Cc1c(COc2cc(OCc3cccc(OS(=O)(=O)[18F])c3)c(CNC(CO)(CO)CO)cc2Cl)cccc1-c1ccc2c(c1)OCCO2 [[^18F]LGSu-1]
PD-L1^+ tumor uptake (PD-L1): 3.3 % ID/mL
